Reference: US11440913B2, “Aminoimidazopyridazines as kinase inhibitors” (BRISTOL-MYERS SQUIBB COMPANY, priority 2017, dated 2022)
Counter-ions that a name gives are not always drawn. Like-named read-outs stand apart in the source and are kept apart here.

What was measured:
[1] = test system: MLKL phosphorylation in HT29-L23 human colorectal adenocarcinoma cells; experiment: MLKL Phosphorylation High-Content Assay; assay type: cell-based; conditions: 6 h, necroptosis induced with TNFα, SMAC mimetic and Z-VAD, read-out: pMLKL (IC50)
Procedure: MLKL Phosphorylation High-Content Assay
HT29-L23 human colorectal adenocarcinoma cells were maintained in RPMI 1640 medium containing 10% heat-inactivated FBS, 1% Pennicilin-Streptomycin and 10 mM HEPES. Cells were seeded at 2,000 cells/well in 384 w tissue culture-treated microplates (Greiner #781090-3B) and incubated at 37° C. (5% CO2/95% O2) for two days. On the day of assay, the cells were treated with test compounds at final concentrations of 6.25 to 0.106 μM for 30 min at 37° C. (5% CO2/95% O2). Necroptopsis was induced using a mixture of human TNFα (35 ng/mL) (Peprotech #300-01A), SMAC mimetic (from US 2015/0322111 A1) (700 nM) and Z-VAD (140 nM) (BD pharmingen #51-6936). Following six hours incubation at 37° C. (5% CO2/95% O2), the cells were fixed with 4% formaldedye (ACROS 11969-0010) for 15 min at room temperature and then permeabilized with phoshpate buffered saline (PBS) containing 0.2% Triton-X-100 for 10 min. MLKL phosporylation was detected using anti-MLKL (phospho S358) antibody (Abcam # ab187091) (1:1000 dilution in Blocking Buffer [PBS supplemented with 0.1% BSA]) with overnight incubation at 4° C. After washing three times in PBS, goat anti-rabbit Alexa-488 (1:1000 dilution) (Life Technologies, A11008) and Hoechst 33342 (Life Technologies, H3570) (1:2000 dilution) in Blocking Buffer were added for 1 h at room temperature. Following another three cycles of washes in PBS, the microplates were sealed, and cellular images were acquired in the Cellomics ArrayScan VTI high-content imager equipped with an X1 camera. Fluorescent images were taken using a 10× objective and the 386-23 BGRFRN_BGRFRN and 485-20 BGRFRN_BGRFRN filter sets, for nuclei and MLKL phosphorylation, respectively. The image sets were analyzed using the Compartmental Analysis Bioapplication software (Cellomics). The level of MLKL phosphorylation was quantified as MEAN_CircRingAvgIntenRatio. […] The IC50 value was defined as the concentration of compound that produces 50% of the maximal inhibition. The data were fitted using the 4-parameter logistic equation to calculate the IC50 and Ymax values.

[2] = target: His-GST-TVMV-hRIPK1(1-324) (Homo sapiens (Human), UniProt Q13546); experiment: RIPK1 HTRF Binding Assay; conditions: HTRF binding, 1 h at rt, read-out: RIPK1 (IC50)
Procedure: A solution was prepared containing 0.2 nM Anti GST-Tb (Cisbio, 61GSTTLB), 90.6 nM probe and 1 nM His-GST-TVMV-hRIPK1(1-324) in FRET Buffer (20 mM HEPES, 10 mM MgCl2, 0.015% Brij-35, 4 mM DTT, 0.05 mg/mL BSA). Using Formulatrix Tempest, the detection antibody/enzyme/probe solution ([…]) was dispensed into wells of a 1536 plate (Black Low Binding Polystyrene 1536 Plate (Corning, 3724)) containing 10 nL of compounds of interest at appropriate concentration in DMSO. The plate was incubated at rt for 1 h. FRET was measured using the EnVision plate reader (Excitation: 340 nm, Emission: 520 nm/[…]). Total signal (0% inhibition) was calculated from wells containing 10 nL DMSO only.
The coding region of human RIPK1(1-324) flanked by NdeI site at 5′ end and stop codon TGA and XhoI site at 3′ end was codon optimized and gene synthesized at GenScript USA Inc. (Piscataway, N.J.) and subcloned into a modified pFastBacl vector (Invitrogen, Carlsbad, Calif.) with N-terminal His-GST-TVMV tag, to generate His-GST-TVMV-hRIPK1(1-324)-pFB. The fidelity of the synthetic fragment was confirmed by sequencing.

Chain of His-GST-TVMV-hRIPK1(1-324) (Q13546 1-324): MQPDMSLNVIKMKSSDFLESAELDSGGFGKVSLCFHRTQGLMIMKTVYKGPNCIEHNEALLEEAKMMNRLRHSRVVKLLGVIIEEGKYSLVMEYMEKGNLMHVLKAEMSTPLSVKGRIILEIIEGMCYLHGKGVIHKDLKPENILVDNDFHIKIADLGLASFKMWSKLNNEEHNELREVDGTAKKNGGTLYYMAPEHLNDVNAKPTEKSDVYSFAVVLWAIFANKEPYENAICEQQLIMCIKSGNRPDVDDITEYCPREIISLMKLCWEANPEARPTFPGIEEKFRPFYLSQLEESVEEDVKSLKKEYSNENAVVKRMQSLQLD

Molecule	IC50 ([1]; Homo sapiens) [nM]	IC50 [2] [nM]	IC50 [1] [nM]	IC50 ([1]; TFA) [nM]	IC50 ([2]; TFA) [nM]
CC(=O)Nc1cn2nc(-c3ccc(C)c(C(=O)NCc4cc(F)cc(F)c4C(=O)N4CC[C@H](O)C4)c3)ccc2n1 [Example 407, N-({3,5-difluoro-2-[(3S)-3-hydroxypyrrolidine-1-carbonyl]phenyl}methyl)-5-{2-acetamidoimidazo [1,2-b]pyridazin-6-yl}-2-methylbenzamide]	388	37	–	–	–
[2H]C([2H])(NC(=O)c1cc(-c2ccc3nc(NC(=O)CC)cn3n2)cnc1OC)c1cc(OC(F)(F)F)ccc1F [Example 244, N-{[2-fluoro-5-(trifluoromethoxy)phenyl](deutero)methyl}-2-methoxy-5-{2-propanamidoimidazo[1,2-b]pyridazin-6-yl}pyridine-3-carboxamide]	4	257	–	–	–
CC(=O)Nc1cn2nc(-c3cnc(Cl)c(C(=O)NC(C)c4cc(C(F)(F)F)ccc4F)c3)ccc2n1 (stereo not shown) [Example 269, 2-chloro-5-{2-acetamidoimidazo[1,2-b]pyridazin-6-yl}-N-{1-[2-fluoro-5-(trifluoromethyl)phenyl]ethyl}pyridine-3-carboxamide]	209	55	–	–	–
COc1ncc(-c2ccc3nc(NC(C)=O)cn3n2)cc1C(=O)N[C@@H](C)c1cc(C(F)(F)F)ccc1F [Example 106, 5-{2-acetamidoimidazo[1,2-b]pyridazin-6-yl}-N-[(1S)-1-[2-fluoro-5-(trifluoromethyl)phenyl](2,2,2-deutero)ethyl]-2-methoxypyridine-3-carboxamide]	–	84	95	–	–
CC(=O)Nc1cn2nc(-c3ccc(Cl)c(C(=O)NCc4cc(-c5cnn(C)c5)ccc4F)c3F)ccc2n1 [Example 389, 6-chloro-3-{2-acetamidoimidazo [1,2-b]pyridazin-6-yl}-2-fluoro-N-{[2-fluoro-5-(1-methyl-1H-pyrazol-4-yl)phenyl]methyl} benzamide]	8	4	–	–	–
COc1nc(C)c(-c2ccc3nc(NC(C)=O)cn3n2)cc1C(=O)NC(C)c1cc(OC(F)(F)F)ccc1F (stereo not shown) [Example 279, 5-{2-acetamidoimidazo[1,2-b]pyridazin-6-yl}-N-{1-[2-fluoro-5-(trifluoromethoxy)phenyl]ethyl}-2-methoxy-6-methylpyridine-3-carboxamide, TFA]	–	–	–	51	47
CC(=O)Nc1cn2nc(-c3cnc(C)c(C(=O)NCc4cc(F)cc(F)c4O[C@H]4CCOC4)c3)ccc2n1 [Example 187, N-({3,5-difluoro-2-[(3S)-oxolan-3-yloxy]phenyl}methyl)-5-{2-acetamidoimidazo [1,2-b]pyridazin-6-yl}-2-methylpyridine-3-carboxamide]	148	18	–	–	–
CC(=O)Nc1cn2nc(-c3cnc(C)c(C(=O)NCc4cc(F)cc(F)c4OC4CCCOC4)c3)ccc2n1 (stereo not shown) [Example 186, N-{[3,5-difluoro-2-(oxan-3-yloxy)phenyl]methyl}-5-{2-acetamidoimidazo[1,2-b]pyridazin-6-yl}-2-methylpyridine-3-carboxamide]	96	15	–	–	–
CC(=O)Nc1cn2nc(-c3cc(C(=O)NCc4ccccc4OCC4CCCC4)c(C)nc3C)ccc2n1 [Example 85, N-{[2-(cyclopentylmethoxy)phenyl]methyl}-5-{2-acetamidoimidazo[1,2-b]pyridazin-6-yl}-2,6-dimethylpyridine-3-carboxamide]	12	4	–	–	–
CC(=O)Nc1cn2nc(-c3cc(C(=O)NCc4cc(OC(F)(F)F)ccc4F)ccc3F)ccc2n1 [Example 432, 3-{2-acetamidoimidazo [1,2-b]pyridazin-6-yl}-4-fluoro-N-{[2-fluoro-5-(trifluoromethoxy)phenyl]methyl} benzamide]	149	36	–	–	–
3-{2- acetamidoimidazo [1,2-b]pyridazin- 6-yl}-2-fluoro- N-{[2-fluoro-5- (trifluoromethoxy) phenyl] (Â^2Hâ,,)methyl} benzamide [Example 430]	–	3	9	–	–
CCC(=O)Nc1cn2nc(-c3cnc(OC)c(C(=O)N[C@H](C)c4cc(OC(F)(F)F)ccc4F)c3)ccc2n1 [Example 245, N-[(1R)-1-[2-fluoro-5-(trifluoromethoxy)phenyl]ethyl]-2-methoxy-5-{2-propanamidoimidazo[1,2-b]pyridazin-6-yl}pyridine-3-carboxamide]	132	486	–	–	–
CC(=O)Nc1cn2nc(-c3cc(C(=O)NCc4cc(F)ccc4OC(F)(F)F)cnc3Cl)ccc2n1 [Example 322, 6-chloro-5-{2-acetamidoimidazo[1,2-b]pyridazin-6-yl}-N-{[5-fluoro-2-(trifluoromethoxy)phenyl]methyl}pyridine-3-carboxamide]	–	8	51	–	–
CC(=O)Nc1cn2nc(-c3cc(F)c(C)c(C(=O)N[C@@H](C)c4cc(OC(F)(F)F)ccc4F)c3)ccc2n1 [Example 360, 5-{2-acetamidoimidazo [1,2-b]pyridazin-6-yl}-3-fluoro-N-[(1S)-1-[2-fluoro-5-(trifluoromethoxy)phenyl]ethyl]-2-methylbenzamide]	9	6	–	–	–
COc1cc(F)c(-c2ccc3nc(NC(C)=O)cn3n2)cc1C(=O)NCc1cc(F)ccc1C(=O)N1CCCC1(C)C [Example 419, N-{[2-(2,2-dimethylpyrrolidine-1-carbonyl)-5-fluorophenyl]methyl}-5-{2-acetamidoimidazo [1,2-b]pyridazin-6-yl}-4-fluoro-2-methoxybenzamide]	28	4	–	–	–
[2H]C([2H])(NC(=O)c1cc(-c2ccc3nc(NC(=O)CO)cn3n2)cnc1OC)c1cc(F)cc(F)c1OC1CCOCC1 [Example 2, N-{[3,5-difluoro-2-(oxan-4-yloxy)phenyl](D2)methyl}-5-[2-(2-hydroxyacetamido)imidazo[1,2-b]pyridazin-6-yl]-2-methoxypyridine-3-carboxamide]	4	2	–	–	–
COc1ncc(-c2ccc3nc(NC(C)=O)cn3n2)cc1C(=O)NC(C)c1cccc(OC(F)(F)F)c1 (stereo not shown) [Example 125, 5-{2-acetamidoimidazo[1,2-b]pyridazin-6-yl}-2-methoxy-N-{1-[3-(trifluoro-methoxy)phenyl]ethyl}pyridine-3-carboxamide]	–	34	153	–	–
COc1ncc(-c2ccc3nc(NC(C)=O)cn3n2)cc1C(=O)NCc1c(F)cccc1OC1CCOCC1 [Example 128, 5-{2-acetamidoimidazo[1,2-b]pyridazin-6-yl}-N-{[2-fluoro-6-(oxan-4-yloxy)phenyl]methyl}-2-methoxypyridine-3-carboxamide, TFA]	–	9	64	–	–
Cc1ncc(-c2ccc3nc(NC(=O)CO)cn3n2)cc1C(=O)N[C@H](C)c1cc(OC(F)(F)F)ccc1F [Example 185, N-[(1R)-1-[2-fluoro-5-(trifluoromethoxy)phenyl]ethyl]-5-[2-(2-hydroxyacetamido)imidazo [1,2-b]pyridazin-6-yl]-2-methylpyridine-3-carboxamide]	81	30	–	–	–
COc1ncc(-c2ccc3nc(NC(C)=O)c(C)n3n2)cc1C(=O)NCc1ccccc1OC(F)(F)F [Example 258, 5-{2-acetamido-3-methylimidazo[1,2-b]pyridazin-6-yl}-2-methoxy-N-{[2-(trifluoromethoxy)phenyl]methyl}pyridine-3-carboxamide, TFA]	57	72	–	–	–
